These results are taken from patent US8865734B2 (priority 2010, dated 2014).

In experiment [1] the test system is in vitro grown Mycobacteria (M. tuberculosis). Kind of experiment: QUM: Quantification of in vitro grown Mycobacteria (in vitro growth fluorescence assay). The conditions noted are these: Mycobacterium tuberculosis; MIC, 80% bacterial growth inhibition; in vitro growth; read-out: QUM. The experiment is classed as cell-based. A digest of the protocol:
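Mycobacterium tuberculosis grown in vitro was quantified by fluorescence across compound dose responses. MIC is defined as the minimum concentration producing 80% growth inhibition.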

Experiment [2] concerns M. tuberculosis inside the host macrophage. Kind of experiment: QIM: Quantification of Intracellular Mycobacteria (intracellular growth assay, phenotypic cell-based). The conditions noted are these: Mycobacterium tuberculosis; MIC, 80% bacterial growth inhibition; intracellular growth; read-out: QIM. A digest of the protocol:
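Dose-response testing of intracellular mycobacterial replication in infected macrophages, a cell-based screening format; MIC is defined as the lowest concentration achieving 80% inhibition of bacterial growth.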

≈ marks a conversion by molar mass, not a printed value. Where only a bound is given, the exact number is not on record here.

Consider `CCc1nc2cc(OC)ccn2c1C(=O)NCc1ccc(OC(F)(F)F)cc1` [Compound 104, 2-Ethyl-7-methoxy-N-(4-(trifluoromethoxy)benzyl)imidazo[1,2-a]pyridine-3-carboxamide], for which the values for the MIC in experiment [1] and in experiment [2] were greater than 20 µM and 1 to 20 µM (≈ 0.393 to 7.87 µg/mL), respectively.

Turning to `CCc1nc2cc(O)ccn2c1C(=O)NCc1ccc(OC(F)(F)F)cc1` [Compound 105, 2-Ethyl-7-hydroxy-N-(4-(trifluoromethoxy)benzyl)imidazo[1,2-a]pyridine-3-carboxamide], the MIC in experiment [1] and in experiment [2] was greater than 20 µM throughout.

With `CCCNc1ccc(CNC(=O)c2c(CC)nc3cc(Cl)ccn23)cc1` [Compound 106, 7-Chloro-2-ethyl-N-(4-(propylamino)benzyl)imidazo[1,2-a]pyridine-3-carboxamide], the MIC is less than 1 µM in experiment [1] and 1 to 20 µM (≈ 0.371 to 7.42 µg/mL) in experiment [2].

In the case of `CCCCCNc1ccc(CNC(=O)c2c(CC)nc3cc(Cl)ccn23)cc1` [Compound 107, 7-Chloro-2-ethyl-N-(4-(pentylamino)benzyl)imidazo[1,2-a]pyridine-3-carboxamide], the MIC in experiment [1] and in experiment [2] was less than 1 µM throughout.

`CCc1nc2cc(Cl)ccn2c1C(=O)NCc1ccc(N2CCN(C)CC2)cc1` [Compound 109, 7-Chloro-2-ethyl-N-(4-(4-methylpiperazin-1-yl)benzyl)imidazo[1,2-a]pyridine-3-carboxamide]: the MIC in experiment [1] and in experiment [2] was 1 to 20 µM (≈ 0.412 to 8.24 µg/mL) each time.

As for `CCc1nc2cc(Cl)ccn2c1C(=O)NCc1ccc(N2CCN(C(C)C)CC2)cc1` [Compound 110, 7-Chloro-2-ethyl-N-(4-(4-isopropylpiperazin-1-yl)benzyl)imidazo[1,2-a]pyridine-3-carboxamide], the MIC was 1 to 20 µM (≈ 0.44 to 8.8 µg/mL) in experiment [1] and less than 1 µM in experiment [2].

On to `CCc1nc2cc(Cl)ccn2c1C(=O)NCc1ccc(N2CCN(c3ccccc3)CC2)cc1` [Compound 111, 7-Chloro-2-ethyl-N-(4-(4-phenylpiperazin-1-yl)benzyl)imidazo[1,2-a]pyridine-3-carboxamide], for which the MIC in experiment [1] and in experiment [2] was less than 1 µM throughout.

Consider `CCc1nc2ccc(Cl)cn2c1C(=O)NCc1ccc(N2CCN(c3ccc(F)cc3)CC2)cc1` [Compound 113, 6-Chloro-2-ethyl-N-(4-(4-(4-fluorophenyl)piperazin-1-yl)benzyl)imidazo[1,2-a]pyridine-3-carboxamide], for which the MIC in experiment [1] and in experiment [2] was less than 1 µM in each case.

As to `CCc1nc2cc(Cl)ccn2c1C(=O)NCc1ccc(-c2ccc(F)cc2)cc1` [Compound 116, 7-Chloro-2-ethyl-N-((4′-fluorobiphenyl-4-yl)methyl)imidazo[1,2-a]pyridine-3-carboxamide], the MIC in experiment [1] and in experiment [2] was less than 1 µM throughout.

As to `CCc1nc2cc(Cl)ccn2c1C(=O)NCc1ccc(-c2ccc(C(C)(C)C)cc2)cc1` [Compound 117, N-((4′-tert-Butylbiphenyl-4-yl)methyl)-7-chloro-2-ethylimidazo[1,2-a]pyridine-3-carboxamide], the MIC in experiment [1] and in experiment [2] was less than 1 µM throughout.

In the case of `CCc1nc2cc(Cl)ccn2c1C(=O)NCc1ccc(-c2ccc(OC)cc2)cc1` [Compound 118, 7-Chloro-2-ethyl-N-((4′-methoxybiphenyl-4-yl)methyl)imidazo[1,2-a]pyridine-3-carboxamide], the MIC in experiment [1] and in experiment [2] was less than 1 µM in each case.

Regarding `CCc1nc2cc(Cl)ccn2c1C(=O)NCc1ccc(-c2ccc(OC(F)(F)F)cc2)cc1` [Compound 119, 7-Chloro-2-ethyl-N-((4′-(trifluoromethoxy)biphenyl-4-yl)methyl)imidazo[1,2-a]pyridine-3-carboxamide], the MIC in experiment [1] and in experiment [2] was less than 1 µM throughout.

For the compound `CCc1nc2cc(Cl)ccn2c1C(=O)NCc1ccc(-c2ccc(C(F)(F)F)cc2)cc1` [Compound 120, 7-Chloro-2-ethyl-N-((4′-(trifluoromethyl)biphenyl-4-yl)methyl)imidazo[1,2-a]pyridine-3-carboxamide], the MIC in experiment [1] and in experiment [2] was less than 1 µM each time.

Consider `CCc1nc2ccc(Cl)cn2c1C(=O)NCc1ccc(-c2ccc(C#N)cc2)cc1` [Compound 121, 6-Chloro-N-((4′-cyanobiphenyl-4-yl)methyl)-2-ethylimidazo[1,2-a]pyridine-3-carboxamide], for which the MIC in experiment [1] and in experiment [2] was less than 1 µM each time.

For the compound `CCc1nc2cc(Cl)ccn2c1C(=O)NCc1ccc(-c2ccc(C#N)cc2)cc1` [Compound 122, 7-Chloro-N-((4′-cyanobiphenyl-4-yl)methyl)-2-ethylimidazo[1,2-a]pyridine-3-carboxamide], the MIC in experiment [1] and in experiment [2] was less than 1 µM in each case.

As for `CCc1nc2ccc(Cl)cn2c1C(=O)NCc1ccc(-c2ccccc2C(F)(F)F)cc1` [Compound 123, 6-Chloro-2-ethyl-N-((2′-(trifluoromethyl)biphenyl-4-yl)methyl)imidazo[1,2-a]pyridine-3-carboxamide], the MIC in experiment [1] was 1 to 20 µM (≈ 0.458 to 9.16 µg/mL); in experiment [2] it was less than 1 µM.

On to `CCc1nc2cc(Cl)ccn2c1C(=O)NCc1ccc(-c2ccccc2C(F)(F)F)cc1` [Compound 124], for which the MIC in experiment [1] was 1 to 20 µM (≈ 0.458 to 9.16 µg/mL); in experiment [2], less than 1 µM.

Turning to `CCc1nc2ccc(Cl)cn2c1C(=O)NCc1ccc(-c2ccccc2C#N)cc1` [Compound 125, 6-Chloro-N-((2′-cyanobiphenyl-4-yl)methyl)-2-ethylimidazo[1,2-a]pyridine-3-carboxamide], the MIC was less than 1 µM in experiment [1] and 1 to 20 µM (≈ 0.415 to 8.3 µg/mL) in experiment [2].

Turning to `CCc1nc2cc(Cl)ccn2c1C(=O)NCc1ccc(-c2ccccc2C#N)cc1` [Compound 126, 7-Chloro-N-((2′-cyanobiphenyl-4-yl)methyl)-2-ethylimidazo[1,2-a]pyridine-3-carboxamide], the figures for the MIC in experiment [1] and in experiment [2] were less than 1 µM and 1 to 20 µM (≈ 0.415 to 8.3 µg/mL), respectively.

Consider `CCc1nc2ccc(Cl)cn2c1C(=O)NCc1ccc(-c2cccc(C#N)c2)cc1` [Compound 127, 6-Chloro-N-((3′-cyanobiphenyl-4-yl)methyl)-2-ethylimidazo[1,2-a]pyridine-3-carboxamide], for which the MIC in experiment [1] is greater than 20 µM; in experiment [2], less than 1 µM.

Consider `CCc1nc2cc(Cl)ccn2c1C(=O)NCc1ccc(-c2cccc(C#N)c2)cc1` [Compound 128, 7-Chloro-N-((3′-cyanobiphenyl-4-yl)methyl)-2-ethylimidazo[1,2-a]pyridine-3-carboxamide], for which the results for the MIC in experiment [1] and in experiment [2] were greater than 20 µM and less than 1 µM, respectively.

For the compound `CCc1nc2ccc(Cl)cn2c1C(=O)NCc1ccc(-c2ccc(Cl)cc2C(F)(F)F)cc1` [Compound 129, 6-Chloro-N-((4′-chloro-2′-(trifluoromethyl)biphenyl-4-yl)methyl)-2-ethylimidazo[1,2-a]pyridine-3-carboxamide], the MIC in experiment [1] and in experiment [2] was less than 1 µM in each case.

Regarding `CCc1nc2cc(Cl)ccn2c1C(=O)NCc1ccc(-c2ccc(Cl)cc2C(F)(F)F)cc1` [Compound 130, 7-Chloro-N-((4′-chloro-2′-(trifluoromethyl)biphenyl-4-yl)methyl)-2-ethylimidazo[1,2-a]pyridine-3-carboxamide], the figures for the MIC in experiment [1] and in experiment [2] were 1 to 20 µM (≈ 0.492 to 9.85 µg/mL) and less than 1 µM, respectively.

In the case of `CCc1nc2ccc(Cl)cn2c1C(=O)NCc1ccc(-c2ccc(C#N)cc2C)cc1` [Compound 131, 6-Chloro-N-((4′-cyano-2′-methylbiphenyl-4-yl)methyl)-2-ethylimidazo[1,2-a]pyridine-3-carboxamide], the MIC in experiment [1] and in experiment [2] was less than 1 µM each time.
